Among the data in patent US20260297109A1, “COMPOUNDS AS SUMO ACTIVATING ENZYME INHIBITORS” (WIGEN BIOMEDICINE TECHNOLOGY (SHANGHAI) CO., LTD., priority 2022, published 2026) are IC50 values, retold here.

SMILES strings stand for the structures.

The assay addresses T1, SAE (Homo sapiens, UniProt Q9UBT2).
T1 construct: endogenous in cells; host or cells: HCT116
T1 sequence (Q9UBT2 1-640): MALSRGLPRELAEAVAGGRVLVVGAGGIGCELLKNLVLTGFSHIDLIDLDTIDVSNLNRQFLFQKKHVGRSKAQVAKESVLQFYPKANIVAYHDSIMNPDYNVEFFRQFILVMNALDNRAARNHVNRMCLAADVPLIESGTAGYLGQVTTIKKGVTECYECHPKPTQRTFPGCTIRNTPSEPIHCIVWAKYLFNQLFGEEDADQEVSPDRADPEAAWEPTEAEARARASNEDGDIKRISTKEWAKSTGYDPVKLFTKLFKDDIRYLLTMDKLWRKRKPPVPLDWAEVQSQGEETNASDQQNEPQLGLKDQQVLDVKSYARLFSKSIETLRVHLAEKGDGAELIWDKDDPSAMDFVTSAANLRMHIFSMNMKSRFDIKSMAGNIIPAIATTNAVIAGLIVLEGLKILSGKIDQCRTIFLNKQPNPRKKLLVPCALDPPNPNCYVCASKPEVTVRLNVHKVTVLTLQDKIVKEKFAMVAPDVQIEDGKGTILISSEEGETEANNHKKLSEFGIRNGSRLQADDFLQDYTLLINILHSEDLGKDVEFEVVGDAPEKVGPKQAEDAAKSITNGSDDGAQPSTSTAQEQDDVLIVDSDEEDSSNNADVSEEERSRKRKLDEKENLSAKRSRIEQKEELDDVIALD
T1 sequence (Q9UBE0 1-346): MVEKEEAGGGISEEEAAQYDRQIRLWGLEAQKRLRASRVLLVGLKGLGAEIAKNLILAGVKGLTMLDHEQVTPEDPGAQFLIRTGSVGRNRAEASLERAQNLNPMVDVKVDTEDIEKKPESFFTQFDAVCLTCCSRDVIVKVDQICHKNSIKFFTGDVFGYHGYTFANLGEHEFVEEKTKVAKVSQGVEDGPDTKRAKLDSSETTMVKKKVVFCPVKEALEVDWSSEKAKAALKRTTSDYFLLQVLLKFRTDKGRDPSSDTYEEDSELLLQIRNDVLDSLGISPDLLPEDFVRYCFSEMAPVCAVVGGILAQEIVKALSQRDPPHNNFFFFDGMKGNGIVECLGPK
The assay can be described thus: SUMO IF: in vitro inhibitory activity assay against SAE in HCT116 cells (SUMO-2/3 immunofluorescence). It counts as cell-based. The following applies: class symbols, 6 h at 37° C. In a few lines: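 HCT116 cells were treated with compound for 6 h at 37 °C, then PFA-fixed, Triton-permeabilised and BSA-blocked. They were stained overnight at 4 °C with anti-SUMO-2/3 (18H8) rabbit mAb (1:400), then with FITC anti-rabbit IgG (1:300). Fluorescence versus DMSO gave inhibition rate and IC50.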

The IC50 is the concentration at which inhibition is half-maximal. Higher therefore signals weaker potency.

Consider `NS(=O)(=O)OC[C@H]1[C@H](F)[C@@H](Nc2ncncc2C(=O)c2cc3c(s2)CN(C2CC2)CC32OCCc3ccc(F)cc32)C[C@@H]1O` (stereo partly drawn) [Compound 738], for which the IC50 lay in the range of 50 to 200 nM. In the case of `NS(=O)(=O)OC[C@H]1[C@H](F)[C@@H](Nc2ncncc2C(=O)c2cc3c(s2)CN(C2CC2)C[C@@]32OCCc3ccc(F)cc32)C[C@@H]1O` [Compound 739], the IC50 is greater than 200 nM. `NS(=O)(=O)OC[C@H]1[C@H](F)[C@@H](Nc2ncncc2C(=O)c2cc3c(s2)CN(C2CC2)C[C@]32OCCc3ccc(F)cc32)C[C@@H]1O` [Compound 740] displayed an IC50 of no more than 50 nM.

In turn, `NS(=O)(=O)OC[C@H]1[C@H](F)[C@@H](Nc2ncncc2C(=O)c2cc3c(s2)CN(C2CC2)CC32OCCc3ccc(Cl)cc32)C[C@@H]1O` (stereo partly drawn) [Compound 741] gave a half-maximal inhibitory concentration (IC50) of 50 to 200 nM.

`NS(=O)(=O)OC[C@H]1[C@H](F)[C@@H](Nc2ncncc2C(=O)c2cc3c(s2)CN(C2CC2)C[C@@]32OCCc3ccc(Cl)cc32)C[C@@H]1O` [Compound 742] showed an IC50 greater than 200 nM. For `NS(=O)(=O)OC[C@H]1[C@H](F)[C@@H](Nc2ncncc2C(=O)c2cc3c(s2)CN(C2CC2)C[C@]32OCCc3ccc(Cl)cc32)C[C@@H]1O` [Compound 743] the value was no more than 50 nM.

`NS(=O)(=O)OC[C@H]1[C@H](F)[C@@H](Nc2ncncc2C(=O)c2cc3c(s2)CCC32OCCc3ccccc32)C[C@@H]1O` (stereo partly drawn) [Compound 744] registered a half-maximal inhibitory concentration (IC50) greater than 200 nM. To `NS(=O)(=O)OC[C@H]1[C@H](F)[C@@H](Nc2ncncc2C(=O)c2cc3c(s2)CC[C@@]32OCCc3ccccc32)C[C@@H]1O` [Compound 745] belongs greater than 200 nM; to `NS(=O)(=O)OC[C@H]1[C@H](F)[C@@H](Nc2ncncc2C(=O)c2cc3c(s2)CC[C@]32OCCc3ccccc32)C[C@@H]1O` [Compound 746], 50 to 200 nM; to `NS(=O)(=O)OC[C@H]1[C@H](F)[C@@H](Nc2ncncc2C(=O)c2cc3c(s2)CCC32OCCc3ccc(F)cc32)C[C@@H]1O` (stereo partly drawn) [Compound 747], 50 to 200 nM.

The molecule `NS(=O)(=O)OC[C@H]1[C@H](F)[C@@H](Nc2ncncc2C(=O)c2cc3c(s2)CC[C@@]32OCCc3ccc(F)cc32)C[C@@H]1O` [Compound 748] registered an IC50 greater than 200 nM. `NS(=O)(=O)OC[C@H]1[C@H](F)[C@@H](Nc2ncncc2C(=O)c2cc3c(s2)CC[C@]32OCCc3ccc(F)cc32)C[C@@H]1O` [Compound 749] displayed an IC50 of 50 to 200 nM. For `N#Cc1ccc2c(c1)C1(CCc3sc(C(=O)c4cncnc4N[C@H]4C[C@H](O)[C@@H](COS(N)(=O)=O)[C@@H]4F)cc31)OCC2` (stereo partly drawn) [Compound 750] the value was 50 to 200 nM; for `N#Cc1ccc2c(c1)[C@]1(CCc3sc(C(=O)c4cncnc4N[C@H]4C[C@H](O)[C@@H](COS(N)(=O)=O)[C@@H]4F)cc31)OCC2` [Compound 751], greater than 200 nM. Take `N#Cc1ccc2c(c1)[C@@]1(CCc3sc(C(=O)c4cncnc4N[C@H]4C[C@H](O)[C@@H](COS(N)(=O)=O)[C@@H]4F)cc31)OCC2` [Compound 752]: the IC50 was no more than 50 nM. The molecule `NS(=O)(=O)OC[C@H]1[C@H](F)[C@@H](Nc2ncncc2C(=O)c2cc3c(s2)C=CC32OCCc3ccccc32)C[C@@H]1O` (stereo partly drawn) [Compound 753] returned an IC50 of 50 to 200 nM.

As for `NS(=O)(=O)OC[C@H]1[C@H](F)[C@@H](Nc2ncncc2C(=O)c2cc3c(s2)C=C[C@@]32OCCc3ccccc32)C[C@@H]1O` [Compound 754], the half-inhibitory concentration (IC50) is greater than 200 nM. In turn, `NS(=O)(=O)OC[C@H]1[C@H](F)[C@@H](Nc2ncncc2C(=O)c2cc3c(s2)C=C[C@]32OCCc3ccccc32)C[C@@H]1O` [Compound 755] came in with an IC50 of 50 to 200 nM. To `NS(=O)(=O)OC[C@H]1[C@H](F)[C@@H](Nc2ncncc2C(=O)c2cc3c(s2)C=CC32OCCc3ccc(F)cc32)C[C@@H]1O` (stereo partly drawn) [Compound 756] belongs 50 to 200 nM; to `NS(=O)(=O)OC[C@H]1[C@H](F)[C@@H](Nc2ncncc2C(=O)c2cc3c(s2)C=C[C@@]32OCCc3ccc(F)cc32)C[C@@H]1O` [Compound 757], greater than 200 nM.

As for `NS(=O)(=O)OC[C@H]1[C@H](F)[C@@H](Nc2ncncc2C(=O)c2cc3c(s2)C=C[C@]32OCCc3ccc(F)cc32)C[C@@H]1O` [Compound 758], the IC50 was no more than 50 nM. To `NS(=O)(=O)OC[C@H]1[C@H](F)[C@@H](Nc2ncncc2C(=O)c2cc3c(s2)C=CC32OCCc3ccc(Cl)cc32)C[C@@H]1O` (stereo partly drawn) [Compound 759] belongs no more than 50 nM. The molecule `NS(=O)(=O)OC[C@H]1[C@H](F)[C@@H](Nc2ncncc2C(=O)c2cc3c(s2)C=C[C@@]32OCCc3ccc(Cl)cc32)C[C@@H]1O` [Compound 760] came in with an IC50 greater than 200 nM. Take `NS(=O)(=O)OC[C@H]1[C@H](F)[C@@H](Nc2ncncc2C(=O)c2cc3c(s2)C=C[C@]32OCCc3ccc(Cl)cc32)C[C@@H]1O` [Compound 761]: the half-inhibitory concentration (IC50) is no more than 50 nM. To `N#Cc1ccc2c(c1)C1(C=Cc3sc(C(=O)c4cncnc4N[C@H]4C[C@H](O)[C@@H](COS(N)(=O)=O)[C@@H]4F)cc31)OCC2` (stereo partly drawn) [Compound 762] belongs 50 to 200 nM. With `N#Cc1ccc2c(c1)[C@]1(C=Cc3sc(C(=O)c4cncnc4N[C@H]4C[C@H](O)[C@@H](COS(N)(=O)=O)[C@@H]4F)cc31)OCC2` [Compound 763], the IC50 is greater than 200 nM. To `N#Cc1ccc2c(c1)[C@@]1(C=Cc3sc(C(=O)c4cncnc4N[C@H]4C[C@H](O)[C@@H](COS(N)(=O)=O)[C@@H]4F)cc31)OCC2` [Compound 764] belongs no more than 50 nM; to `NS(=O)(=O)OC[C@H]1[C@H](F)[C@@H](Nc2ncncc2C(=O)c2cc(C3NCCc4ccc(Cl)cc43)c(C3CC3)s2)C[C@@H]1O` (stereo partly drawn) [Compound 984], 50 to 200 nM; to `NS(=O)(=O)OC[C@H]1[C@H](F)[C@@H](Nc2ncncc2C(=O)c2cc([C@@H]3NCCc4ccc(Cl)cc43)c(C3CC3)s2)C[C@@H]1O` [Compound 985], 50 to 200 nM. In turn, `NS(=O)(=O)OC[C@H]1[C@H](F)[C@@H](Nc2ncncc2C(=O)c2cc([C@H]3NCCc4ccc(Cl)cc43)c(C3CC3)s2)C[C@@H]1O` [Compound 986] showed an IC50 greater than 200 nM. To `Cc1sc(C(=O)c2cncnc2N[C@H]2C[C@H](O)[C@@H](COS(N)(=O)=O)[C@@H]2F)cc1C1OCCc2ccc(Cl)cc21` (stereo partly drawn) [Compound 987] belongs 50 to 200 nM; to `Cc1sc(C(=O)c2cncnc2N[C@H]2C[C@H](O)[C@@H](COS(N)(=O)=O)[C@@H]2F)cc1[C@@H]1OCCc2ccc(Cl)cc21` [Compound 988], 50 to 200 nM; to `Cc1sc(C(=O)c2cncnc2N[C@H]2C[C@H](O)[C@@H](COS(N)(=O)=O)[C@@H]2F)cc1[C@H]1OCCc2ccc(Cl)cc21` [Compound 989], greater than 200 nM. `Cc1sc(C(=O)c2cncnc2N[C@H]2C[C@H](O)[C@@H](CCS(N)(=O)=O)[C@@H]2F)cc1C1NCCc2ccc(Cl)cc21` (stereo partly drawn) [Compound 990] yielded an IC50 greater than 200 nM.

Molecule `Cc1sc(C(=O)c2cncnc2N[C@H]2C[C@H](O)[C@@H](CCS(N)(=O)=O)[C@@H]2F)cc1[C@@H]1NCCc2ccc(Cl)cc21` [Compound 991] had an IC50 of 50 to 200 nM. On to `Cc1sc(C(=O)c2cncnc2N[C@H]2C[C@H](O)[C@@H](CCS(N)(=O)=O)[C@@H]2F)cc1[C@H]1NCCc2ccc(Cl)cc21` [Compound 992], for which the IC50 was greater than 200 nM. `CC1CNC2(CCCc3sc(C(=O)c4cncnc4N[C@H]4C[C@H](O)[C@@H](COS(N)(=O)=O)[C@@H]4F)cc32)c2cc(Cl)ccc21` (stereo partly drawn) [Compound 1020] had an IC50 of 50 to 200 nM. With `CC1CN[C@@]2(CCCc3sc(C(=O)c4cncnc4N[C@H]4C[C@H](O)[C@@H](COS(N)(=O)=O)[C@@H]4F)cc32)c2cc(Cl)ccc21` (stereo partly drawn) [Compound 1021], the IC50 was greater than 200 nM. `CC1CN[C@]2(CCCc3sc(C(=O)c4cncnc4N[C@H]4C[C@H](O)[C@@H](COS(N)(=O)=O)[C@@H]4F)cc32)c2cc(Cl)ccc21` (stereo partly drawn) [Compound 1022] yielded an IC50 of no more than 50 nM. With `CC1Cc2ccc(Cl)cc2C2(CCCc3sc(C(=O)c4cncnc4N[C@H]4C[C@H](O)[C@@H](COS(N)(=O)=O)[C@@H]4F)cc32)N1` (stereo partly drawn) [Compound 1023], the IC50 lay in the range of 50 to 200 nM. For `CC1Cc2ccc(Cl)cc2[C@]2(CCCc3sc(C(=O)c4cncnc4N[C@H]4C[C@H](O)[C@@H](COS(N)(=O)=O)[C@@H]4F)cc32)N1` (stereo partly drawn) [Compound 1024], the IC50 is greater than 200 nM. With `CC1Cc2ccc(Cl)cc2[C@@]2(CCCc3sc(C(=O)c4cncnc4N[C@H]4C[C@H](O)[C@@H](COS(N)(=O)=O)[C@@H]4F)cc32)N1` (stereo partly drawn) [Compound 1025], the IC50 lay in the range of 50 to 200 nM.
